# Experimental data taken from patent US12060349B2, “Glucosylceramide synthase inhibitors” (Genzyme Corporation, priority 2012, dated 2024).
# Read-outs that look alike come from different tables or passages of the source.
# Assays:
# B16 mouse melanoma cells = test: cell viability in the B16 cell-based assay (Viability, B16 IC50)
# Summary of the method: (§1)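 Viability readouts were run alongside the GM3 cell-surface assay in the same B16 and C32 cultures. A figure above 10 indicates no cell death.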
# [1] = target: T1, glucosylceramide synthase (Homo sapiens, UniProt Q16739); test: microsomal assay measuring conversion of ceramide to glucosylceramide by HPLC (GCS IC50); assay type: biochemical; details: concentration causing 50% inhibition of glucosylceramide synthase activity
# T1 construct: Microsomes were isolated from A375 human melanoma cells; endogenous in cells; host or cells: A375 human melanoma cells (microsomal fraction, 100,000 g pellet)
# T1 sequence (Q16739 1-394): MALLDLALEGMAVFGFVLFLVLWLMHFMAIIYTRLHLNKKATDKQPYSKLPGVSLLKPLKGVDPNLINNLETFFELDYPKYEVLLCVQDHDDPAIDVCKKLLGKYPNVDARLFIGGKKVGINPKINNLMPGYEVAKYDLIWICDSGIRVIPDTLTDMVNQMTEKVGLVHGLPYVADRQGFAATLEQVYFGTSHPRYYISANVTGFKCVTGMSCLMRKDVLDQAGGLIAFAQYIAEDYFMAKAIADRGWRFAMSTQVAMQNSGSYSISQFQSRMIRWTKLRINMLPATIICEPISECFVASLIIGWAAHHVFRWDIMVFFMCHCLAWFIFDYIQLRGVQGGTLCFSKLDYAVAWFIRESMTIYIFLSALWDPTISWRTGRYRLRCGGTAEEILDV
# Summary of the method: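 IC50 is the compound concentration halving glucosylceramide synthase activity. Activity was measured in microsomes, with HPLC quantifying glucosylceramide formed from ceramide.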
# [2] = system: GM3 expression on the cell surface, C32 human melanoma cells; test: cell based phenotypic assay, cell surface GM3 by antibody mediated immunofluorescence, C32 (GM3 C32 IC50); details: Homo sapiens, 50% inhibition of GM3 expression on the cell surface
# Summary of the method: (§2)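 Both lines undergo the phenotypic GM3 assay, and viability is recorded from that same cell-based run.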
# C32 human melanoma cells = test: cell viability in the C32 cell-based assay (Viability, C32 IC50); details: concentration causing 50% cell death, values greater than 10 represent a lack of cell death
# Summary of the method: as §1
# [3] = system: GM3 expression on the cell surface, B16 mouse melanoma cells; test: cell based phenotypic assay, cell surface GM3 by antibody mediated immunofluorescence, B16 (GM3 B16 IC50); details: Mus musculus, 50% inhibition of GM3 expression on the cell surface
# Summary of the method: as §2
# [4] = Mus musculus, B16, B16 cells, concentration causing 50% cell death, values greater than 10 represent a lack of cell death, read-out: Viability, B16 IC50
# [5] = C32 human melanoma cells, read-out: GM3 C32 IC50
# [6] = Homo sapiens, C32, C32 cells, read-out: Viability, C32 IC50
# [7] = B16 mouse melanoma cells, read-out: GM3 B16 IC50
# [8] = read-out: Viability, B16 IC50, B16 cells, concentration causing 50% cell death, values greater than 10 represent a lack of cell death
# [9] = read-out: GM3 C32 IC50, C32 human melanoma cells
# [10] = read-out: Viability, C32 IC50, C32 cells
# [11] = read-out: GM3 B16 IC50, B16 mouse melanoma cells
# [12] = Mus musculus, B16, read-out: Viability, B16 IC50
# [13] = Homo sapiens, C32, read-out: Viability, C32 IC50, C32 cells
smiles,measurement,setting,value
"COCCCOc1cnc(-c2cccc(C(C)(C)NC(=O)OC3CCN4CCC3CC4)c2)nc1 (stereo not shown) [Example 324, 1-Azabicyclo[3.2.2]nonan-4-yl (2-(3-(5-(3-methoxypropoxy)pyrimidin-2-yl)phenyl)propan-2-yl)carbamate]",IC50,B16 mouse melanoma cells; [4],≥ 10 µM
same,IC50,[1],0.0969 µM
same,IC50,[2]; [5],0.00849 µM
same,IC50,C32 human melanoma cells; [6],1 µM
same,IC50,[3]; [7],0.157 µM
"CCC1(NC(=O)NC(C)(C)C#Cc2ccc(CCOC)cc2)CN2CCC1CC2 (stereo not shown) [Example 325, 1-(3-Ethylquinuclidin-3-yl)-3-(4-(4-(2-methoxyethyl)phenyl)-2-methylbut-3-yn-2-yl)urea]",IC50,B16 mouse melanoma cells; [4],≥ 10 µM
same,IC50,[1],0.092 µM
same,IC50,[2]; [5],0.00794 µM
same,IC50,C32 human melanoma cells; [6],≥ 10 µM
same,IC50,[3]; [7],0.399 µM
"CCCC1(NC(=O)NC(C)(C)C#Cc2ccc(CCOC)cc2)CN2CCC1CC2 (stereo not shown) [Example 326, 1-(4-(4-(2-Methoxyethyl)phenyl)-2-methylbut-3-yn-2-yl)-3-(3-propylquinuclidin-3-yl)urea]",IC50,B16 mouse melanoma cells; [4],3.16 µM
same,IC50,[1],0.0266 µM
same,IC50,[2]; [5],0.00429 µM
same,IC50,C32 human melanoma cells; [6],3.16 µM
same,IC50,[3]; [7],0.123 µM
"CCC1(NC(=O)NC(C)(C)C#Cc2ccc(COC)cc2)CN2CCC1CC2 (stereo not shown) [Example 327, 1-(3-Ethylquinuclidin-3-yl)-3-(4-(4-(methoxymethyl)phenyl)-2-methylbut-3-yn-2-yl)urea]",IC50,B16 mouse melanoma cells; [4],≥ 10 µM
same,IC50,[1],0.0962 µM
same,IC50,[2]; [5],0.0147 µM
same,IC50,C32 human melanoma cells; [6],≥ 10 µM
same,IC50,[3]; [7],0.343 µM
"CCCC1(NC(=O)NC(C)(C)C#Cc2ccc(COC)cc2)CN2CCC1CC2 (stereo not shown) [Example 328, 1-(4-(4-(Methoxymethyl)phenyl)-2-methylbut-3-yn-2-yl)-3-(3-propylquinuclidin-3-yl)urea]",IC50,B16 mouse melanoma cells; [4],3.16 µM
same,IC50,[1],0.0251 µM
same,IC50,[2]; [5],0.00332 µM
same,IC50,C32 human melanoma cells; [6],3.16 µM
same,IC50,[3]; [7],0.115 µM
"COCCOc1ccc(C#CC(C)(C)NC(=O)OC2CN3CCC2CC3)cc1 (stereo not shown) [Example 329, Quinuclidin-3-yl (4-(4-(2-methoxyethoxy)phenyl)-2-methylbut-3-yn-2-yl)carbamate]",IC50,B16 mouse melanoma cells; [8],≥ 10 µM
same,IC50,[1],3.14 µM
same,IC50,[2]; [9],0.284 µM
same,IC50,C32 human melanoma cells; [10],≥ 10 µM
same,IC50,[3]; [11],2.7 µM
"COCCCOc1ccc(C#CC(C)(C)NC(=O)OC2CN3CCC2CC3)cc1 (stereo not shown) [Example 331, Quinuclidin-3-yl (4-(4-(3-methoxypropoxy)phenyl)-2-methylbut-3-yn-2-yl)carbamate]",IC50,B16 mouse melanoma cells; [8],≥ 10 µM
same,IC50,[1],1.33 µM
same,IC50,[2]; [9],0.118 µM
same,IC50,C32 human melanoma cells; [10],≥ 10 µM
same,IC50,[3]; [11],1.76 µM
"CCC1(NC(=O)NC(C)(C)C#Cc2ccc(COCc3cccnc3)cc2)CN2CCC1CC2 (stereo not shown) [Example 332, 1-(3-Ethylquinuclidin-3-yl)-3-(2-methyl-4-(4-((pyridin-3-ylmethoxy)methyl)phenyl)but-3-yn-2-yl)urea]",IC50,B16 mouse melanoma cells; [4],≥ 10 µM
same,IC50,[1],0.0494 µM
same,IC50,[2]; [5],0.0155 µM
same,IC50,C32 human melanoma cells; [6],≥ 10 µM
same,IC50,[3]; [7],0.945 µM
"CCCC1(NC(=O)NC(C)(C)C#Cc2ccc(COCc3cccnc3)cc2)CN2CCC1CC2 (stereo not shown) [Example 333, 1-(2-Methyl-4-(4-((pyridin-3-ylmethoxy)methyl)phenyl)but-3-yn-2-yl)-3-(3-propylquinuclidin-3-yl)urea]",IC50,B16 mouse melanoma cells; [4],≥ 10 µM
same,IC50,[1],0.0161 µM
same,IC50,[2]; [5],0.00618 µM
same,IC50,C32 human melanoma cells; [6],3.16 µM
same,IC50,[3]; [7],0.413 µM
"CC(C)(C)CCS(=O)(=O)c1ccc(C#CC(C)(C)NC(=O)OC2CN3CCC2CC3)cc1 (stereo not shown) [Example 334, Quinuclidin-3-yl (4-(4-((3,3-dimethylbutyl)sulfonyl)phenyl)-2-methylbut-3-yn-2-yl)carbamate]",IC50,B16 mouse melanoma cells; [12],3.28 µM
same,IC50,[1],0.0802 µM
same,IC50,[2]; [9],0.0118 µM
same,IC50,C32 human melanoma cells; [13],≥ 10 µM
same,IC50,[3]; [11],0.317 µM
"CC(C)(C)CCS(=O)(=O)c1ccc(C#CC(C)(C)NC(=O)OC2CCN3CCC2CC3)cc1 (stereo not shown) [Example 335, 1-Azabicyclo[3.2.2]nonan-4-yl (4-(4-((3,3-dimethylbutyl)sulfonyl)phenyl)-2-methylbut-3-yn-2-yl)carbamate]",IC50,B16 mouse melanoma cells; [4],2.15 µM
same,IC50,[1],0.0146 µM
same,IC50,[2]; [5],0.00432 µM
same,IC50,C32 human melanoma cells; [6],1 µM
same,IC50,[3]; [7],0.193 µM
"CC(C)(C)CCS(=O)(=O)c1ccc(C#CC(C)(C)NC(=O)NC2(C)CCN3CCC2CC3)cc1 (stereo not shown) [Example 336, 1-(4-(4-((3,3-Dimethylbutyl)sulfonyl)phenyl)-2-methylbut-3-yn-2-yl)-3-(4-methyl-1-azabicyclo[3.2.2]nonan-4-yl)urea]",IC50,B16 mouse melanoma cells; [4],≥ 10 µM
same,IC50,[1],0.0012 µM
same,IC50,[2]; [5],0.000902 µM
same,IC50,C32 human melanoma cells; [6],≥ 10 µM
same,IC50,[3]; [7],0.0388 µM
"CC(C)(C)CCS(=O)(=O)c1ccc(C#CC(C)(C)NC(=O)NC2(C)CN3CCC2CC3)cc1 (stereo not shown) [Example 337, 1-(4-(4-((3,3-Dimethylbutyl)sulfonyl)phenyl)-2-methylbut-3-yn-2-yl)-3-(3-methylquinuclidin-3-yl)urea]",IC50,B16 mouse melanoma cells; [4],2.15 µM
same,IC50,[1],0.0145 µM
same,IC50,[2]; [5],0.00254 µM
same,IC50,C32 human melanoma cells; [6],1 µM
same,IC50,[3]; [7],0.0941 µM
"CCC1(NC(=O)NC(C)(C)C#Cc2ccc(S(=O)(=O)CCC(C)(C)C)cc2)CN2CCC1CC2 (stereo not shown) [Example 338, 1-(4-(4-((3,3-Dimethylbutyl)sulfonyl)phenyl)-2-methylbut-3-yn-2-yl)-3-(3-ethylquinuclidin-3-yl)urea]",IC50,B16 mouse melanoma cells; [4],2.15 µM
same,IC50,[1],0.00445 µM
same,IC50,[2]; [5],0.000984 µM
same,IC50,C32 human melanoma cells; [6],1 µM
same,IC50,[3]; [7],0.0721 µM
"COCC(C)(C)c1ccc(C#CC(C)(C)NC(=O)NC2(C)CN3CCC2CC3)cc1 (stereo not shown) [Example 339, 1-(4-(4-(1-Methoxy-2-methylpropan-2-yl)phenyl)-2-methylbut-3-yn-2-yl)-3-(3-methylquinuclidin-3-yl)urea]",IC50,B16 mouse melanoma cells; [4],≥ 10 µM
same,IC50,[1],0.136 µM
same,IC50,[2]; [5],0.0257 µM
same,IC50,C32 human melanoma cells; [6],≥ 10 µM
same,IC50,[3]; [7],0.72 µM
"COCCCOc1ccc(-c2nc(C(C)(C)NC(=O)OC3CN4CCC3CC4)cs2)cc1 (stereo not shown) [Example 340, Quinuclidin-3-yl (2-(2-(4-(3-methoxypropoxy)phenyl)thiazol-4-yl)-propan-2-yl)carbamate]",IC50,B16 mouse melanoma cells; [12],≥ 10 µM
same,IC50,[1],0.17 µM
same,IC50,[2]; [9],0.0426 µM
same,IC50,C32 human melanoma cells; [13],≥ 10 µM
same,IC50,[3]; [11],0.197 µM
"COCCCOc1ccc(-c2nc(C(C)(C)NC(=O)OC3CCN4CCC3CC4)cs2)cc1 (stereo not shown) [Example 341, 1-Azabicyclo[3.2.2]nonan-4-yl (2-(2-(4-(3-methoxypropoxy)phenyl)thiazol-4-yl)propan-2-yl)carbamate]",IC50,B16 mouse melanoma cells; [4],≥ 10 µM
same,IC50,[1],0.0193 µM
same,IC50,[2]; [5],0.00719 µM
same,IC50,C32 human melanoma cells; [6],≥ 10 µM
same,IC50,[3]; [7],0.0904 µM
"COCCCOc1ccc(-c2nc(C(C)(C)NC(=O)N3CCN4CCC3CC4)cs2)cc1 [Example 342, N-(2-(2-(4-(3-Methoxypropoxy)phenyl)thiazol-4-yl)propan-2-yl)-1,4-diazabicyclo[3.2.2]nonane-4-carboxamide]",IC50,B16 mouse melanoma cells; [4],≥ 10 µM
same,IC50,[1],0.666 µM
same,IC50,[2]; [5],0.0851 µM
same,IC50,C32 human melanoma cells; [6],≥ 10 µM
same,IC50,[3]; [7],0.393 µM
"COCCOc1ccc(-c2nc(C(C)(C)NC(=O)OC3CN4CCC3CC4)cs2)cc1 (stereo not shown) [Example 343, Quinuclidin-3-yl (2-(2-(4-(2-methoxyethoxy)phenyl)thiazol-4-yl)propan-2-yl)carbamate]",IC50,B16 mouse melanoma cells; [12],≥ 10 µM
same,IC50,[1],0.36 µM
same,IC50,[2]; [9],0.0198 µM
same,IC50,C32 human melanoma cells; [13],1 µM
same,IC50,[3]; [11],0.106 µM
"COCCOc1ccc(-c2nc(C(C)(C)NC(=O)OC3CCN4CCC3CC4)cs2)cc1 (stereo not shown) [Example 344, 1-Azabicyclo[3.2.2]nonan-4-yl (2-(2-(4-(2-methoxyethoxy)phenyl)thiazol-4-yl)propan-2-yl)carbamate]",IC50,B16 mouse melanoma cells; [4],≥ 10 µM
same,IC50,[1],0.0658 µM
same,IC50,[2]; [5],0.00876 µM
same,IC50,C32 human melanoma cells; [6],1 µM
same,IC50,[3]; [7],0.0564 µM
